# According to paper PMC11103274 (Journal of the American Chemical Society, 2023):
# Where two headings read alike, the source gives them in different places.
# How the values were obtained:
# [1] = target: T1, human serine racemase (hSR) (Homo sapiens, UniProt Q9GZT4); details: cited from earlier work
# T1 sequence (Q9GZT4 1-340): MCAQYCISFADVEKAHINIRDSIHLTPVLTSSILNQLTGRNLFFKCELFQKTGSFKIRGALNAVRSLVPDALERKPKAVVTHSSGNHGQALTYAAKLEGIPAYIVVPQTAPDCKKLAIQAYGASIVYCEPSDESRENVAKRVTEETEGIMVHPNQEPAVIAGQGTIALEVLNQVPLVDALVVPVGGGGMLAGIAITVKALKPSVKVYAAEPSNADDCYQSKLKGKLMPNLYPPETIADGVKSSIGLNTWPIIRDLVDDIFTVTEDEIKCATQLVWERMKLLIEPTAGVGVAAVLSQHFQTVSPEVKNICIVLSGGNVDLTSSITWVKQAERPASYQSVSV
# [2] = target: T2, human serine racemase (hSR), allosteric ATP site (Homo sapiens, UniProt Q9GZT4); experiment: steady state competition against ATP, L-Ser held constant at 30 mM; assay type: biochemical; details: L-Ser constant at 30 mM
# T2 sequence (Q9GZT4 1-340): T1 sequence (Q9GZT4 1-340)
# [3] = target: T1, human serine racemase (hSR); experiment: 13C/2H-isotopic crosstalk NMR dual function assay; details: for IC50: 13C/2H crosstalk NMR assay
# [4] = target: T1, human serine racemase (hSR); experiment: steady state kinetic analysis, coupled UV-vis assay for β-elimination; assay type: biochemical
# [5] = solubility under assay conditions; assay type: physicochemical
# [6] = read-out: IC50(H/D-exchange), L-Ser 30 mM
# [7] = read-out: IC50(β-elimination), positive controls
compound,measurement,setting,value
"N[C@H](C(=O)O)[C@@H](O)C(=O)O [L-EHA, L-erythro-β-hydroxy-aspartate]",Ki,"[1]; literature, most potent inhibitors yet identified",~30 µM
O=C(O)CC(=O)O [malonate],Ki,[1]; ref 33a,20 to 120 µM
"N-H indolo-chroman-2,4-dione [compound 10]",mode of inhibition vs. ATP,[2],competing with ATP for the allosteric site
same,inhibition in the NMR screen,[3]; 1 mM,complete inhibition
same,Hill coefficient of dose-response curve,[3]; NMR assay,~ 2
same,IC50,[3]; [6],45 ± 6 µM
same,IC50,"[3]; read-out: IC50(β-elimination), L-Ser 30 mM",36 ± 10 µM
same,Ki,"[4]; read-out: Ki (L-SOS elim), β-elimination of L-serine-O-sulfate",12 ± 4 µM
same,Ki,"[4]; read-out: Ki (L-Ser elim), β-elimination of L-Ser",44 ± 6 µM
same,mode of inhibition vs. substrate,[4]; steady state kinetics,non-competitive inhibition
same,relative solubility,[5],more soluble than the N-alkyl congeners
"CCOP(=O)(CC(=O)O)OCC [compound 2, diethyl phosphonate acetate, reference compound]",IC50,"[3]; read-out: IC50(H/D-exchange), positive controls",95000 ± 10000 µM
same,IC50,[3]; [7],96000 ± 19000 µM
"NC(=O)C1=CN([C@@H]2O[C@H](COP(=O)(O)O)[C@@H](O)[C@H]2O)C=CC1 [NMNH, nicotinamide mononucleotide, reduced form]",mode of inhibition with respect to substrate,[1]; ref Mozzarelli and co-workers,non-competitive inhibition
O=C(O)C(Cl)(Cl)C(=O)O [dichloromalonate],Ki,[1],~20 µM
"O=C(O)CP(=O)(O)O [compound 1, phosphonoacetate, reference compound]",IC50,[3]; [6],89 ± 35 µM
same,IC50,[3]; [7],39000 ± 2000 µM
